Assays:
Adenosine receptor A1 = molecular target: T1, Adenosine receptor A1 (Rattus norvegicus, UniProt P25099); assay: Inhibition of A1 agonist (R)-[3H]N 6-(phenylisopropyl) adenosine binding to membranes from rat whole brain
T1 sequence (P25099 whole entry): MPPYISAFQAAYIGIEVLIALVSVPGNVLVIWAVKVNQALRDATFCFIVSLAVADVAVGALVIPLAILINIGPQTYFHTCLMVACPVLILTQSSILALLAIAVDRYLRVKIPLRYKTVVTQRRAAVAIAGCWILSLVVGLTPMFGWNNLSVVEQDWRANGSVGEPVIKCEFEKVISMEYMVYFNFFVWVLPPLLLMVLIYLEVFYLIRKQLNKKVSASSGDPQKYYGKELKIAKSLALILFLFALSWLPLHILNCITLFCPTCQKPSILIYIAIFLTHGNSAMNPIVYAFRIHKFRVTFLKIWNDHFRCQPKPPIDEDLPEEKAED

[1] = molecular target: Adenosine receptors; A1 & A2a (Rattus norvegicus) (UniProt P25099+P30543); assay: Ratio of binding affinity against adenosine A1 receptor and adenosine A2a receptor; assay type: protein assay
Adenosine receptor A2a = Adenosine receptor A2a (Rattus norvegicus, UniProt P30543); assay: Inhibition of A2a agonist [3H]-CGS- 21680 binding to rat striatal membranes; assay type: cell membranes, Membrane
Chain of Adenosine receptor A2a (P30543 whole entry): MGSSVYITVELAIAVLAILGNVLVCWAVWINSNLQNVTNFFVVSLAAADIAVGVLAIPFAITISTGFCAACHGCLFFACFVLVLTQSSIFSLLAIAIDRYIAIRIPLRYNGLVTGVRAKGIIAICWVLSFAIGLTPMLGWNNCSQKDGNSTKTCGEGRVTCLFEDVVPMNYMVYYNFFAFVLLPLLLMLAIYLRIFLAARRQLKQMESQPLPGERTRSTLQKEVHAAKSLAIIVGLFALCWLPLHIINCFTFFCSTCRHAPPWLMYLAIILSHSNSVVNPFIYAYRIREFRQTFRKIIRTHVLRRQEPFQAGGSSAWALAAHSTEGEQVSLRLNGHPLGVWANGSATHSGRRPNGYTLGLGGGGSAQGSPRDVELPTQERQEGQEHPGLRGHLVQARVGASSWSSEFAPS

Chain of Adenosine receptors; A1 & A2a (Rattus norvegicus) (P30543 whole entry, looked up, one chain of several): as the sequence (P30543 whole entry) above

Ki (Adenosine receptor A1)	Ratio [1]	Ki (Adenosine receptor A2a)	Compound
29.5 nM	13000	> 38500 nM	CCCSc1nc(SC(CC)C(N)=O)nc2c1cnn2-c1ccccc1 (centres undefined)
	331		CCCCC(Sc1nc(NC)c2cnn(-c3ccccc3)c2n1)C(N)=O (centres undefined)

From ChEMBL document CHEMBL1128971, “Pyrazolo[3,4-d]pyrimidines: C4, C6 substitution leads to adenosine A1 receptor selectivity” (Bioorg Med Chem Lett, 1996)
